Results as given in patent US12419848B2, “Treatment of hyperinflammatory syndrome” (priority 2020, dated 2025).
Where a name gives a salt, the structure may show the parent alone.

Columns and labels:
P2X7R = molecular target: T1, P2X7R (Homo sapiens, UniProt Q99572); set-up: endogenous in cells; host or cells: human subjects (clinical trials reported elsewhere); conditions: administered orally; cited from earlier work
T1 sequence (Q99572 1-595): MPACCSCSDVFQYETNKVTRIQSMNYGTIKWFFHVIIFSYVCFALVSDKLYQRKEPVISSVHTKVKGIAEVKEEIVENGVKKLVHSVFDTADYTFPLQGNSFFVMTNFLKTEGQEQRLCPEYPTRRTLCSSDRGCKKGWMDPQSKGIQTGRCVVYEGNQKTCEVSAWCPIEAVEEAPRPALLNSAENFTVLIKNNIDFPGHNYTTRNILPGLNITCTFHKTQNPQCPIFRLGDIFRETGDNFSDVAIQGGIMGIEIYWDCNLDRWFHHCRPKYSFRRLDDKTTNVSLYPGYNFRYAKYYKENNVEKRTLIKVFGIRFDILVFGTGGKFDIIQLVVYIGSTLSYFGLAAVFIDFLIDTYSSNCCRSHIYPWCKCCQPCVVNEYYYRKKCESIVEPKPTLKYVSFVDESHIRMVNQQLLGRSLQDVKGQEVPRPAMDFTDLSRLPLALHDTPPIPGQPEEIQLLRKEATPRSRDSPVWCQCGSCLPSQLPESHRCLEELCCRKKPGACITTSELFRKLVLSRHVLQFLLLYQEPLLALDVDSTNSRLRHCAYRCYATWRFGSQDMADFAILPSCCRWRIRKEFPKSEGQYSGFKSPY

[1] = test system: posttraumatic epileptic seizures; assay: Example 21: posttraumatic epileptic seizures; assay type: in vivo, human
[2] = test system: psoriatic arthritis, herpes zoster infection; assay: Example 11: psoriatic arthritis with herpes zoster
[3] = test system: chronic interstitial cystitis; assay: Example 13: chronic interstitial cystitis; assay type: in vivo, human; conditions: for effect on symptoms (prior treatment): in vivo
[4] = test system: idiopathic Parkinson's disease
Alzheimer's disease = assay: Example 19: Alzheimer's dementia; assay type: in vivo, human; conditions: sublingual 4×100 mg/d, after 3 months; before 15
diabetic polyneuropathy = assay: Example 23: diabetic polyneuropathy; assay type: in vivo, human
myasthenia gravis = assay: Example 24: myasthenia gravis; assay type: in vivo, human
Method: A person was diagnosed having myasthenia gravis. They suffered from muscle weakness of the arms and hand after physical activity. The diagnosis was confirmed with EMG and positive test for antibodies against acetylcholine receptor (AChR). They were treated with oral anticholinesterase drug (mestinon) 4×60 mg/d. […] The treatment was continued for 2 weeks.

COPD = assay: Example 25: COPD; assay type: in vivo, human; conditions: sublingual 4×100 mg/d, after 3 months; before 60%
ulcerative colitis = assay: Example 27: ulcerative colitis; assay type: in vivo, human
[5] = test system: inflammatory bowel disease with perianal fistulae; assay: Example 28: inflammatory bowel disease with perianal fistulae; assay type: in vivo; conditions: dog, 4×100 mg/d applied into the largest fistula, after 1 week
ischaemic cardiomyopathy = assay: Example 31: ischaemic cardiomyopathy; assay type: in vivo, human
acute lumbago = assay: Example 32: acute lumbago; assay type: in vivo, human; conditions: sublingual 4×100 mg/d, after 30 minutes
SLE peritonitis = assay: Example 33: systemic lupus erythematosus; assay type: in vivo, human
COVID-19 [6] = assay: Example 7: COVID-19 case; assay type: in vivo, human
Excerpt: On Mar. 24, 2020, a person developed cough, dyspnoea, myalgia, pain in hip and groin, shivers but no fever. A COVID-19 test was not performed. This occurred one week after closely working together with a colleague who developed proven severe COVID-19 requiring hospital admission.
On Jul. 12, 2020, (day 1) the patient developed new symptoms comprising shivers, joint pain (knees, hips, shoulders) and conjunctivitis of the left eye. They reported sick at work. The infection probably occurred on Jul. 1, 2020. On that day they met many people during their work at the office and in the evening they went for a drink in a bar with a few colleagues. The infection occurred despite social distancing and hand sanitising. At that time no one wore a face mask. […] On July 21 (day 10), 2020, the IgA antibody test for COVID-19 result was positive.
A few hours later a clinical deterioration occurred with extreme fatigue, chest pain and pain in the right upper arm. The treatment was converted to transdermal lidocaine cream. […] As much as 400 mg cream is applied over the skin and covered by Tegaderm transparent wound dressing. […] But after 6 hours the infusion rate was increased to 63 mg/hour (1 mg/kg/hr) due to persistent symptoms.
Day 85, after almost 3 weeks with no symptoms other than a fluctuating pain in the upper arm, the prickling sensations of the lung returned. SpO2 96%, HR 90/min, BP 95/68 mm Hg, temperature […]. […] Inhalation of the lidocaine solution was avoided.

COVID-19 [7] = assay type: in vivo
[8] = test system: renal function impairment; assay: Example 16: advanced cervix carcinoma and renal dysfunction; assay type: in vivo, human; conditions: continuous subdermal 1 mg/kg/hr
terminal cancer patients = assay: Example 17: diverse cancer, palliative; assay type: in vivo, human; conditions: for time to relief of pain, nausea and/or extreme fatigue: continuous subcutaneous 1 mg/kg/hr; for SIP68: 10 patients, before treatment 48 (range 18-68)
ALS = assay: Example 18: amyotrophic lateral sclerosis; assay type: in vivo, human
[9] = Examples 1-6: safety (ECG, metHb, confusion); conditions: for Blood metHb: within the normal range
rheumatoid arthritis = assay: Example 30: rheumatoid arthritis; set-up: species or system human; conditions: in vivo
[10] = sublingual 4×100 mg/d, after 1 month

For O=C(NCC12CC3CC(CC(C3)C1)C2)c1cc(CCCNCCCO)ccc1Cl [AZD9056], the “outcome of oral administration” value (P2X7R) is listed as “without great success”.
For COC[C@H](O)Cn1c(=O)cnn(-c2ccc(Cl)c(C(=O)NCC3(O)CCCCCC3)c2)c1=O [CE-224,535 500], the “outcome of oral administration” value (P2X7R) is given as “without great success”.
For CCN(CC)CC(=O)Nc1c(C)cccc1C [Lidocaine hydrochloride], the “EEG epileptic activity of the brain” value ([1]; subdermal 1 mg/kg/hour) was “had disappeared” and the “time to disappearance of seizures” value ([1]; subdermal 1 mg/kg/hour, 20 mg/ml solution) was at most 30 min.
In the case of CN1CC[C@]23c4c5ccc(O)c4O[C@H]2[C@@H](O)C=C[C@H]3[C@H]1C5 [Morphine], the “effect on herpes zoster pain” value ([2]; before lidocaine treatment) is reported as “did not subside the pain” and the side effect ([2]; in vivo) is reported as “developed obstipation”.
With COc1ccc2c3c1O[C@H]1C(=O)CC[C@@]4(O)[C@@H](C2)N(C)CC[C@]314 [Oxycodone] the “effect on symptoms (prior treatment)” value [3] was “had no effect on their symptoms”.
With CN1C(=O)CN=C(c2ccccc2)c2cc(Cl)ccc21 [diazepam] the “effect on generalised epileptic seizures” value ([1]; repeated 10 mg intravenous) was “had no effect”.
With N[C@@H](Cc1ccc(O)c(O)c1)C(=O)O [levodopa] the “side effect after increasing dosage” value ([4]; in vivo) was “levodopa-induced chorea” and the “symptoms (prior treatment)” value ([4]; initially, symptoms returned after 6 years) was “the symptoms improved clearly”.
With CCN(CC)CC(=O)Nc1c(C)cccc1C [lidocaine base, lidocaine] the “MMSE Test total score” value (Alzheimer's disease) was 23, the “muscle strength of hands” value (diabetic polyneuropathy; after 3 months) was “improved significantly” and the “tingling feelings in hands and feet” value (diabetic polyneuropathy; sublingual 4×100 mg/d, after a few days) was “disappeared completely”. For the same compound, the “influenza A viral infection symptoms” value (myasthenia gravis; sublingual 4×100 mg/d) was “disappeared almost completely”, the “time to significant improvement of muscle weakness of arms and hand” value (myasthenia gravis; sublingual 4×100 mg/d) was at most 4 h and the FEV1 (COPD) was 84%. The symptoms (ulcerative colitis; sublingual 4×100 mg/d, after 3 days) was “completely disappeared”, the “oozing opaque fluid secretion and bad odour” value [5] was “had disappeared” and the chest pain episodes (ischaemic cardiomyopathy; after 3 weeks) was “significantly diminished”. For the same compound, the “cardiac ejection fraction (transthoracic echocardiographic)” value (ischaemic cardiomyopathy; sublingual 4×100 mg/d, after 3 months, before 31%) was 42%, the symptoms disappeared (acute lumbago) was 95% and the abdominal distension (SLE peritonitis; after 2 weeks) was “disappeared completely”. For the same compound, the clinical symptoms (SLE peritonitis; sublingual 4×100 mg/d) was “disappeared in the course of 6 days”, the tendency to fall [4, 10] was “gradually improved” and the tremor [4, 10] was “almost disappeared”.
In the case of CCN(CC)CC(=O)Nc1c(C)cccc1C [lidocaine], the symptoms (COVID-19 [6]; continuous subdermal 0.5 mg/kg/hr, after a few hours (March 2020)) is reported as “practically free of symptoms”, the symptoms (COVID-19 [6]; day 11, infusion 24 hours per day) is reported as “improved gradually” and the symptoms (COVID-19 [6]; day 12-13, subdermal 0.63 mg/kg/hr plus amoxicilline) is reported as “improved significantly”. The clinical improvement (COVID-19 [6]; day 18, subdermal 40 mg/hour, after 1 hour) was “clinical improvement was noticeable”, the symptoms (COVID-19 [6]; day 18, subdermal 63 mg/hour (1 mg/kg/hr)) was “the symptoms disappeared with the exception of the pain in the upper arm” and the symptoms (COVID-19 [6]; day 23, lidocaine infusion) was “reduced the symptoms to tolerable levels”. The “time to improvement of symptoms” value (COVID-19 [6]; day 46, continuous subdermal 0.63 mg/kg/hr) was at most 30 min, the symptoms (COVID-19 [6]; day 61, continuous subdermal 0.63 mg/kg/hr) was “the symptoms subsided” and the “time to disappearance of prickling sensations and oppressive feeling on chest” value (COVID-19 [6]; from day 85, sublingual 3×100 mg/d) was 20 min. The symptoms after relapse (COVID-19 [6]; reinitiated continuous subcutaneous infusion) was “subsided again”, the symptoms (COVID-19 [6]; subdermal 0.63 mg/kg/hr, day 1 (Jul. 12, 2020)) was “improved within a few hours” and the clinical condition (COVID-19 [6]; subdermal infusion reinitiated Apr. 1, 2020, after a few days) was “the clinical condition improved”. The “all symptoms except dry mouth feelings and mild fatigue” value (COVID-19 [7]; day 8, sublingual 3×60 mg/d) was “disappeared completely”, the “runny nose, headache, neck pain and neck stiffness” value (COVID-19 [7]; sublingual 5×60 mg, 24 hours after initiation) was “disappeared” and the symptoms ([3]; continuous subcutaneous 1 mg/kg/hr, after 2 days) was “practically free of symptoms”. The renal function [8] was “improved”, the “time to relief of pain, nausea and/or extreme fatigue” value (terminal cancer patients; 7 of 10 patients) was at most 2 h and the SIP68 (terminal cancer patients; after 3 days) was 33 (range 12-58). The SIP68 (terminal cancer patients; after 7 days) was 28 (range 12-56), the “time to relief of pain, nausea and/or extreme fatigue” value (terminal cancer patients; remaining patients) was at most 48 h and the “MRC muscle strength: Upper arm abduction left” value (ALS; six months, sublingual 4×100 mg/d, before 4) was 5. The “MRC muscle strength: Foot extension left” value (ALS; six months, before 1) was 2, the “MRC muscle strength: Foot extension right” value (ALS; six months, before 1) was 2 and the “MRC muscle strength: Foot flexion left” value (ALS; six months, before 2) was 3. For the same compound, the “MRC muscle strength: Foot flexion right” value (ALS; six months, before 2) was 3, the “MRC muscle strength: Elbow flexion left” value (ALS; six months, before 4) was 4 and the “MRC muscle strength: Elbow flexion right” value (ALS; six months, before 4) was 4. The “MRC muscle strength: Knee flexion left” value (ALS; six months, before 4) was 5, the “MRC muscle strength: Knee flexion right” value (ALS; six months, before 4) was 5 and the “MRC muscle strength: Upper arm abduction right” value (ALS; six months, before 4) was 5. For the same compound, the muscle cramping (ALS; sublingual 4×100 mg/d, after one week) was “gradually disappeared”, the symptoms (polymyalgia rheumatica; nocturnal continuous subdermal 0.5 mg/kg/hr, 8 hours, 2 x/week) was “disappeared after the first treatment” and the “time to disappearance of symptoms” value (polymyalgia rheumatica; sublingual 2×60 mg/d) was at most 1 h. For the same compound, the “new ECG changes during treatment with lidocaine” value (from here on “new ECG changes during treatment”) ([9]; Patient 1) was “No new ECG changes”, the “Blood metHb” value ([9]; Patient 1) was 0.3-0.8% and the “new ECG changes during treatment” value ([9]; Patient 2) was “No new ECG changes”. For the same compound, the “signs of confusion after extubation” value ([9]; Patient 2, day 22, on lidocaine) was “no signs of confusion”, the “Blood metHb” value ([9]; Patient 2) was 0.1-0.6% and the “new ECG changes during treatment” value ([9]; Patient 3) was “No new ECG changes”. The “signs of confusion after extubation” value ([9]; Patient 3, day 5) was “no signs of confusion”, the “Blood metHb” value ([9]; Patient 3) was 0.1-0.4% and the “new ECG changes during treatment” value ([9]; Patient 4) was “No new ECG changes”. The “signs of confusion after extubation” value ([9]; Patient 4) was “no signs of confusion”, the “Blood metHb” value ([9]; Patient 4) was 0.1-0.3% and the “new ECG changes during treatment” value ([9]; Patient 5) was “No new ECG changes”. The “signs of confusion after extubation” value ([9]; Patient 5, day 10) was “no signs of confusion”, the “Blood metHb” value ([9]; Patient 5) was 0.1-0.3% and the “new ECG changes during treatment” value ([9]; Patient 6) was “No new ECG changes”. The “signs of confusion after extubation” value ([9]; Patient 6, day 10) was “no signs of confusion” and the “Blood metHb” value ([9]; Patient 6) was 0.1-0.3%.
In the case of Nc1ccc(O)c(C(=O)O)c1 [mesalamine], the “response of symptoms in this exacerbation” value (ulcerative colitis; oral CR 3×400 mg/d) is reported as “did not respond”.
With CN(C)C(=O)Oc1ccc[n+](C)c1 [mestinon] the “efficacy during influenza A infection” value (myasthenia gravis; oral 4×60 mg/d) was “no longer effective”.
In the case of CN(Cc1cnc2nc(N)nc(N)c2n1)c1ccc(C(=O)N[C@@H](CCC(=O)O)C(=O)O)cc1 [methotrexate], the “effect on symptoms (prior treatment)” value (rheumatoid arthritis) is reported as “did not improve the symptoms”.
With CC(=O)Nc1ccc(O)cc1 [paracetamol] the “effect on symptoms (prior treatment)” value [3] was “had no effect on their symptoms”.
With “tocilizumab: disease-modifying antirheumatic drug” the “effect on symptoms (prior treatment)” value (rheumatoid arthritis) was “did not improve the symptoms”.
